Key:
[1] = refractive index (Na D-line) (dimensionless); conditions: 293.15 K; 101.33 kPa; Liquid; Standard Abbe refractometry
[2] = wn = mass fraction of the nth substance listed; conditions: 100 kPa, Liquid; for viscosity: Falling or rolling sphere viscometry; for mass density: Vibrating tube method

CO [methanol]
Conditions	refractive index
[1]	1.32858

O [water] + CO
[2], w2 = 0
Conditions	mass density [kg/m3]	viscosity [mPa·s]
275.15 K	999.94	1.661
293.15 K	–	0.998

CO [methanol] + O
[2]
Conditions	mass density, w1 = 0.1 [kg/m3]	mass density, w1 = 0.2 [kg/m3]	mass density, w1 = 0.3001 [kg/m3]	mass density, w1 = 0.4 [kg/m3]	mass density, w1 = 0.4999 [kg/m3]	viscosity, w1 = 0.1 [mPa·s]	viscosity, w1 = 0.2 [mPa·s]	viscosity, w1 = 0.3001 [mPa·s]	viscosity, w1 = 0.4 [mPa·s]	viscosity, w1 = 0.4999 [mPa·s]
273.15 K	984.19	972.46	960.61	945.89	928.63	2.575	3.315	3.636	3.623	3.312
293.15 K	981.29	966.62	951.49	934.6	915.53	1.316	1.623	1.782	1.824	1.747
